{"source": "patent US7179821B2", "about": "“Method of treating of demyelinating diseases or conditions” (Aventis Pharmaceuticals Inc., priority 2001, dated 2007)", "key": {"[1]": {"system": "transient focal cerebral ischemia", "assay": "Transient focal cerebral ischemia in rats, lesion size", "format": "in vivo, rat", "settings": "10 mg/kg iv 1 hour after ischemia onset", "procedure": "Methods: Male Sprague-Dawley rats [Iffa Credo, France] weighing about 220–240 g were anaesthetized with halothane (1.4%) in a nitrous oxide-oxygen mixture (70:30). Both common carotid arteries (CCAs) were isolated. The left middle cerebral artery (MCA) exposed via a temporal craniotomy was occluded with a microclip, and simultaneously the CCAs were occluded for 1 hour. Both body and cerebral temperatures were kept at normothermia. Following surgery animals were returned to their home cages in a room warmed at 24–26° C.\nHP184, dissolved in 1% tween (in injectable sterile water), was administered at 10 and 20 mg/kg iv 1 hour after ischemia onset, and control rats received the vehicle according to the same protocol. At 24 h post-ischemia, a neurological function using a 9 points grading scale was performed blindly.\nThereafter rats were killed and brains were removed. Fresh sections were cut with a brain matrix and stained with triphenyl tetrazolium chloride 2% at 37° C. for 5 min. The sections were then stored in 10% formalin at 4° C. for 24 h. Areas of infarction were measured with an image analyzer (Leica Q500)."}, "[2]": {"system": "voltage-dependent K+ channels", "assay": "Potassium channel currents in PC12 cells, patch clamp", "format": "cell-based", "settings": "10 μM, 200 msec clamp pulses to +40 mV from −80 mV, n=4", "procedure": "PC12 cells (ATCC, Rockville, Md.) were grown in Dulbecco's modified Eagle's media supplemented with 10% fetal bovine serum (GIBCO BRL Grand Island, N.Y.). Potassium channel currents were measured using standard patch clamp electrophysiolgy protocols as detailed previously (Rampe et al., 1998).\nPotassium channel currents were elicited by 200 msec clamp pulses to +40 mV from a holding potential of −80 mV. […] Application of HP184 (10 μM) reduced the amplitude of this current and enhanced the rate of current decay. When current was measured at the end of the pulse, HP184 reduced current amplitude by 75±4% (n=4). The results are consisent with the notion that HP184 acts as an antagonist of voltage-dependent K^+ channels by blocking an activated state."}, "[3]": {"system": "spinal cord crush-induced motor impairments", "assay": "Acute treatment after moderate spinal cord crush (1.4 mm), Open Field Walking Scale", "format": "in vivo, rat"}}}
{"smiles": "CCCN(c1ccncc1F)n1cc(C)c2ccccc21", "note": "[HP184, N-(3-fluoro-4-pyridinyl)-N-propyl-3-methyl-1H-indole-1-amine]", "values": [{"measurement": "reduction of lesion in the cortex", "setting": "[1]; cortex", "value": "−45", "unit": "%"}, {"measurement": "reduction of brain lesions", "setting": "[1]; measured 24 h post-ischemia", "value": 41, "unit": "%"}, {"measurement": "reduction of current amplitude at the end of the pulse", "setting": "[2]", "value": "75±4", "unit": "%"}, {"measurement": "rate and extent of improvement of OFT score", "setting": "[3]; 20 and 5 mg/kg ip within 15 minutes of crush, repeated days 2 and 3, FIG. 2", "value": "significantly different from vehicle treated rats"}, {"measurement": "rate and extent of improvement of OFT score", "setting": "[3]; po 5–10 minutes prior to crush, then once a day days 2 and 3, vs vehicle treated group, FIG. 3", "value": "improved for all doses"}]}
